The subject of this assay is HepG2 BODIPY-LDL uptake, high-content imaging. In words: increase of fluorescent LDL uptake in hepatoma cells – imaging, BODIPY-LDL, cherry-pick, dose response (AID 1053146).

Each structure is given as a SMILES string.

The term EC50 denotes the concentration giving half of the maximal effect.

Consider `CN1C(=O)c2cc(NC(=O)c3ccc(C(F)(F)F)cc3)ccc2OC[C@@H]2O[C@@H](CC(=O)NC3Cc4ccccc4C3)CC[C@@H]21`, for which the EC50 is 4600 nM.

Turning to `CN1C(=O)c2cc(NC(=O)c3ccc(C(F)(F)F)cc3)ccc2OC[C@@H]2O[C@H](CC(=O)NC3Cc4ccccc4C3)CC[C@@H]21`, the EC50 is 1100 nM.

The values above are taken from PubChem BioAssay AID1053146 (Broad Institute, 2014).
